Reference: patent publication US8268827B2, “Pyridazinone derivatives as PARP inhibitors” (Istituto di Ricerche di Biologia Molecolare P. Angeletti …, priority 2007, dated 2012)
Structures can show the parent of a compound that is named as a salt.

Tested on: BRCA-1 silenced HeLa cells (HeLa shBRCA1-GFP)
Assay: Proliferation assay in BRCA-1 silenced HeLa cells
Type: cell-based
Details: Homo sapiens; BRCA1 silenced HeLa cells, 168 hours; read-out: CC50 in the BRCA1 silenced HeLa cells
Protocol: Proliferation Assay in BRCA-1 Silenced HeLa Cells
Compounds of the present invention were also tested in an anti-proliferative assay in matched pair BRCA1 wt and BRCA1-(shRNA) HeLa cells.
The assay is based on the ability of living cells to convert a redox dye (resazurin) into a fluorescent end product (resofurin). The amount of resofurin produced is directly proportional to the cell number.
HeLa shBRCA1-GFP—These are HeLa cells transduced at an MOI of 100 with a Lentivirus containing a shRNA against BRCA-1 and an expression cassette for GFP. BRCA-1 silencing is more than 80% as assessed by Taqman analysis and the cells stably express GFP.
HeLa THM-GFP—These are HeLa cells transduced at an MOI of 100 with a control vector not expressing any shRNA.
• Seed 300 cell/well in 96 wells viewplate black in 90 ul culture Medium*: • Incubate 4 hours at 37° C., 5% CO2 • Add 10 ul/well of 10× compound (5% DMSO in H2O) • Incubate for 168 hours at 37° C., 5% CO2 • Add 10 ul of Celltiter Blue solution (Promega, G8081) pre-diluted 1:1 in PBS1× • Incubate the mixture for 45′ at 37° C., 5% CO2 • Incubate 15′ at RT in the dark • Read plate at fluorimeter ex: 550 nm; em: 590 nm *Culture Medium: DMEM (GIBCO, 41966-029), 10% FCS (GIBCO, 10106-169), 0.1 mg/ml Penicillin-Streptomycin (GIBCO, 15140-114), 2 mM L-Glutamine (GIBCO, 3042190)

## Cc1c(Cc2ccc(F)c(C(=O)N3CC(=O)N4CCCC[C@H]4C3)c2)n[nH]c(=O)c1C [Example 89, (9aS)-2-{5-[(4,5-Dimethyl-6-oxo-1,6-dihydropyridazin-3-yl)methyl]-2-fluorobenzoyl}octahydro-4H-pyrido[1,2-a]pyrazin-4-one trifluoroacetate]
  CC50: < 5000 nM

## Cc1c(Cc2ccc(F)c(C(=O)N3CCN(C4COc5ccccc5C4)C(=O)C3)c2)n[nH]c(=O)c1C (stereo not shown) [Example 98, 6-(3-{[4-(3,4-dihydro-2H-chromen-3-yl)-3-oxopiperazin-1-yl]carbonyl}-4-fluorobenzyl)-4,5-dimethyl-3-oxo-2,3-dihydropyridazin-1-ium trifluoroacetate]
  CC50: < 50 nM

## Cc1c(Cc2ccc(F)c(C(=O)N3CCN(C4CCCc5ccccc54)C(=O)C3)c2)n[nH]c(=O)c1C (stereo not shown) [Example 99, 6-(4-fluoro-3-{[3-oxo-4-(1,2,3,4-tetrahydronaphthalen-1-yl)piperazin-1-yl]carbonyl}benzyl)-4,5-dimethyl-3-oxo-2,3-dihydropyridazin-1-ium trifluoroacetate]
  CC50: < 50 nM

## Cc1c(Cc2ccc(F)c(C(=O)N3CCN(C4CCc5ccccc54)C(=O)C3)c2)n[nH]c(=O)c1C (stereo not shown) [Example 100, 6-(3-{[4-(2,3-dihydro-1H-inden-1-yl)-3-oxopiperazin-1-yl]carbonyl}-4-fluorobenzyl)-4,5-dimethyl-3-oxo-2,3-dihydropyridazin-1-ium trifluoroacetate]
  CC50: < 50 nM

## Cc1c(Cc2ccc(F)c(C(=O)N3CCN([C@@H]4C[C@H]5CC[C@@H]4C5)C(=O)C3)c2)n[nH]c(=O)c1C [Example 101, 6-[3-({4-[(1R,2R,4S)-Bicyclo[2.2.1]hept-2-yl]-3-oxopiperazin-1-yl}carbonyl)-4-fluorobenzyl]-4,5-dimethyl-3-oxo-2,3-dihydropyridazin-1-ium trifluoroacetate]
  CC50: < 50 nM

## Cc1c(Cc2ccc(F)c(C(=O)N3CC(=O)N(C4CCCC4)C(C)C3)c2)n[nH]c(=O)c1C (stereo not shown) [Example 102, 6-{3-[(4-cyclopentyl-3-methyl-5-oxopiperazin-1-yl)carbonyl]-4-fluorobenzyl}-4,5-dimethyl-3-oxo-2,3-dihydropyridazin-1-ium trifluoroacetate]
  CC50: < 50 nM

## Cc1c(Cc2ccc(F)c(C(=O)N3CCN([C@H]4CCCOC4)C(=O)C3)c2)n[nH]c(=O)c1C [Example 103, 6-[4-fluoro-3-({3-oxo-4-[(3S)-tetrahydro-2H-pyran-3-yl]piperazin-1-yl}carbonyl)benzyl]-4,5-dimethylpyridazin-3(2H)-one]
  CC50: 50 to 500 nM

## Cc1c(Cc2ccc(F)c(C(=O)N3CCN([C@@H]4CCCOC4)C(=O)C3)c2)n[nH]c(=O)c1C [Example 104, 6-[4-fluoro-3-({3-oxo-4-[(3R)-tetrahydro-2H-pyran-3-yl]piperazin-1-yl}carbonyl)benzyl]-4,5-dimethylpyridazin-3(2H)-one]
  CC50: < 50 nM

## CCN1CCN(C(=O)c2cc(Cc3n[nH]c(=O)c(C(F)(F)F)c3C)ccc2F)CC1=O [Example 105, 3-{3-[(4-Ethyl-3-oxopiperazin-1-yl)carbonyl]-4-fluorobenzyl}-4-methyl-6-oxo-5-(trifluoromethyl)-1,6-dihydropyridazin-1-ium trifluoroacetate]
  CC50: < 50 nM

## Cc1c(Cc2ccc(F)c(C(=O)N3CCN(C4COC5(CCCC5)C4)C(=O)C3)c2)n[nH]c(=O)c1C (stereo not shown) [Example 106, 6-(4-Fluoro-3-{[4-(1-oxaspiro[4.4]non-3-yl)-3-oxopiperazin-1-yl]carbonyl}benzyl)-4,5-dimethylpyridazin-3(2H)-one trifluoroacetate]
  CC50: 50 to 500 nM

## Cc1c(Cc2ccc(F)c(C(=O)N3CCN(C4COC5(CCCCC5)C4)C(=O)C3)c2)n[nH]c(=O)c1C (stereo not shown) [Example 107, 6-(4-Fluoro-3-{[4-(1-oxaspiro[4.5]dec-3-yl)-3-oxopiperazin-1-yl]carbonyl}benzyl)-4,5-dimethylpyridazin-3(2H)-one trifluoroacetate]
  CC50: 50 to 500 nM

## Cc1c(Cc2ccc(F)c(C(=O)N3CCN(C4(C)CCCCC4)C(=O)C3)c2)n[nH]c(=O)c1C [Example 110, 6-(4-fluoro-3-{[4-(1-methylcyclohexyl)-3-oxopiperazin-1-yl]carbonyl}benzyl)-4,5-dimethyl-3-oxo-2,3-dihydropyridazin-1-ium trifluoroacetate]
  CC50: < 5000 nM

## Cc1c(Cc2ccc(F)c(C(=O)N3CCN([C@@H]4CCOC4)C(=O)C3)c2)n[nH]c(=O)c1C [Example 112, 6-[4-Fluoro-3-({3-oxo-4-[(3R)-tetrahydrofuran-3-yl]piperazin-1-yl}carbonyl)benzyl]-4,5-dimethylpyridazin-3(2H)-one]
  CC50: < 5000 nM

## Cc1nc(C)c(N2CCN(C(=O)c3cc(Cc4n[nH]c(=O)c(C)c4C)ccc3F)CC2=O)s1 [Example 117, 3-(3-{[4-(2,4-Dimethyl-1,3-thiazol-5-yl)-3-oxopiperazin-1-yl]carbonyl}-4-fluorobenzyl)-4,5-dimethyl-6-oxo-1,6-dihydropyridazin-1-ium trifluoroacetate]
  CC50: 50 to 500 nM

## Cc1c(Cc2ccc(F)c(C(=O)N3CCN(C(c4ccc(F)cc4)C(F)F)C(=O)C3)c2)n[nH]c(=O)c1C (stereo not shown) [Example 118, 6-[3-({4-[2,2-difluoro-1-(4-fluorophenyl)ethyl]-3-oxopiperazin-1-yl}carbonyl)-4-fluorobenzyl]-4,5-dimethyl-3-oxo-2,3-dihydropyridazin-1-ium trifluoroacetate]
  CC50: 50 to 500 nM

## Cc1c(Cc2ccc(F)c(C(=O)N3CCN(C4CCC(c5ccccc5)C4)C(=O)C3)c2)n[nH]c(=O)c1C (stereo not shown) [Example 119, 6-(4-fluoro-3-{[3-oxo-4-(3-phenylcyclopentyl)piperazin-1-yl]carbonyl}benzyl)-4,5-dimethyl-3-oxo-2,3-dihydropyridazin-1-ium trifluoroacetate]
  CC50: < 50 nM

## Cc1c(Cc2ccc(F)c(C(=O)N3CCN([C@H](C)c4ccccc4)C(=O)C3)c2)n[nH]c(=O)c1C [Example 121, 6-[4-fluoro-3-({3-oxo-4-[(1R)-1-phenylethyl]piperazin-1-yl}carbonyl)benzyl]-4,5-dimethyl-3-oxo-2,3-dihydropyridazin-1-ium trifluoroacetate]
  CC50: 50 to 500 nM

## Cc1c(Cc2ccc(F)c(C(=O)N3CCN([C@@H](C)c4ccccc4)C(=O)C3)c2)n[nH]c(=O)c1C [Example 122, 6-[4-fluoro-3-({3-oxo-4-[(1S)-1-phenylethyl]piperazin-1-yl}carbonyl)benzyl]-4,5-dimethyl-3-oxo-2,3-dihydropyridazin-1-ium trifluoroacetate]
  CC50: 50 to 500 nM

## Cc1c(Cc2ccc(F)c(C(=O)N3CCN([C@H](c4ccccc4)C(F)F)C(=O)C3)c2)n[nH]c(=O)c1C [Example 123, 6-(3-{[4-(2,2-difluoro-1R-phenylethyl)-3-oxopiperazin-1-yl]carbonyl}-4-fluorobenzyl)-4,5-dimethyl-3-oxo-2,3-dihydropyridazin-1-ium trifluoroacetate]
  CC50: 50 to 500 nM

## Cc1c(Cc2ccc(F)c(C(=O)N3CC(=O)N(C4CCC(F)(F)CC4)C(C)C3)c2)n[nH]c(=O)c1C (stereo not shown) [Example 126, 6-(3-{[4-(4,4-Difluorocyclohexyl)-3-methyl-5-oxopiperazin-1-yl]carbonyl}-4-fluorobenzyl)-4,5-dimethylpyridazin-3(2H)-one trifluoroacetate]
  CC50: < 50 nM

## Cc1c(Cc2ccc(F)c(C(=O)N3CC(=O)N(C4CCC(F)(F)C4)C(C)C3)c2)n[nH]c(=O)c1C (stereo not shown) [Example 127, 6-(3-{[4-(3,3-Difluorocyclopentyl)-3-methyl-5-oxopiperazin-1-yl]carbonyl}-4-fluorobenzyl)-4,5-dimethylpyridazin-3(2H)-one trifluoroacetate]
  CC50: < 50 nM

## Cc1c(Cc2ccc(F)c(C(=O)N3CC(=O)N(C4CCC(C)(C)CC4)C(C)C3)c2)n[nH]c(=O)c1C (stereo not shown) [Example 128, 6-(3-{[4-(4,4-Dimethylcyclohexyl)-3-methyl-5-oxopiperazin-1-yl]carbonyl}-4-fluorobenzyl)-4,5-dimethylpyridazin-3(2H)-one trifluoroacetate]
  CC50: < 50 nM

## Cc1c(Cc2ccc(F)c(C(=O)N3CC(=O)N(C4CCCOC4)C(C)C3)c2)n[nH]c(=O)c1C (stereo not shown) [Example 129, 6-(4-Fluoro-3-{[3-methyl-5-oxo-4-(tetrahydro-2h-pyran-3-yl)piperazin-1-yl]carbonyl}benzyl)-4,5-dimethylpyridazin-3(2H)-one trifluoroacetate]
  CC50: 50 to 500 nM

## Cc1c(Cc2ccc(F)c(C(=O)N3CC(=O)N(C4CCOC4)C(C)C3)c2)n[nH]c(=O)c1C (stereo not shown) [Example 130, 6-(4-Fluoro-3-{[3-methyl-5-oxo-4-(tetrahydrofuran-3-yl)piperazin-1-yl]carbonyl}benzyl)-4,5-dimethylpyridazin-3(2H)-one trifluoroacetate]
  CC50: 50 to 500 nM

## Cc1c(Cc2ccc(F)c(C(=O)N3CC(=O)N(C(c4ccccc4)C(F)F)C(C)C3)c2)n[nH]c(=O)c1C (stereo not shown) [Example 131, 6-(3-{[4-(2,2-Difluoro-1-phenylethyl)-3-methyl-5-oxopiperazin-1-yl]carbonyl}-4-fluorobenzyl)-4,5-dimethylpyridazin-3(2H)-one trifluoroacetate]
  CC50: < 50 nM
